Measurements from publication PMC3510490, “Structure of Actin-related protein 8 and its contribution to nucleosome binding” (Nucleic Acids Research, 2012).

Experiments:
yeast Arp8 = target: T1, yeast Arp8 (Saccharomyces cerevisiae, UniProt Q12386); assay: […] phosphate release, TLC; type: biochemical; settings: 100 µM ATP with 5 nM [γ-32P]ATP (labelled compound), 2 mM MgCl2, pH 7.9, 30 °C
T1 construct: recombinant from HighFive insect cells, prepared as described previously; monomer
T1 sequence (Q12386 1-881): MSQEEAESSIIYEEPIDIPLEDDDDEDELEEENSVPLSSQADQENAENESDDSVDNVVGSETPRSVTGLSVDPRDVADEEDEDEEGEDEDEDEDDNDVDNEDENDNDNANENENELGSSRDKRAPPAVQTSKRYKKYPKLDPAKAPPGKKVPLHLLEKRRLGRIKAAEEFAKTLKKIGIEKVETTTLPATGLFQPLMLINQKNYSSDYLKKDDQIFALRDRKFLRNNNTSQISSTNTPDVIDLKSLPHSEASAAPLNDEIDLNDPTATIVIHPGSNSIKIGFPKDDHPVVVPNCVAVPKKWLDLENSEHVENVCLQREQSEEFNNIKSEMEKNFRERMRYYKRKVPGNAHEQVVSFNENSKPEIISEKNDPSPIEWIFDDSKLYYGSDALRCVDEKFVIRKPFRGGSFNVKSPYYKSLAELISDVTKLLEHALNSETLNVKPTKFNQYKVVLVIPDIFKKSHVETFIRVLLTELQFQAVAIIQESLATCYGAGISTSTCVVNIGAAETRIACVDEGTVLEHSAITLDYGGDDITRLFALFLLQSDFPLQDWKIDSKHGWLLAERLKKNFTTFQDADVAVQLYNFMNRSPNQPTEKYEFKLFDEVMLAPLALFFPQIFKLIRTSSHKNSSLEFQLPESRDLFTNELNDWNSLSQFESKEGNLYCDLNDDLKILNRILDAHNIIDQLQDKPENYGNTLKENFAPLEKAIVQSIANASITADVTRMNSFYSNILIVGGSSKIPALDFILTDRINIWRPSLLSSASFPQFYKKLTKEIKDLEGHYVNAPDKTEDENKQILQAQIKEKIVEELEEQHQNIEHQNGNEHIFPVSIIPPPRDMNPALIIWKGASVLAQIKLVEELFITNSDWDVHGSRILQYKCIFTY

[1] = target: T2, Homo sapiens Arp8 (Δ1–33) (Homo sapiens, UniProt Q9H981); assay: X-ray crystal structure, […] Å; settings: ATP co-purified from expression host, not added; one metal ion (likely Mg2+); nucleotide-binding cleft; pH 6.1
T2 construct: gene ACTR8; N-terminal 8xHis tag cleaved by PreScission protease; E. coli BL21(DE3); monomer
T2 sequence (Q9H981 34-624, stated change not applied): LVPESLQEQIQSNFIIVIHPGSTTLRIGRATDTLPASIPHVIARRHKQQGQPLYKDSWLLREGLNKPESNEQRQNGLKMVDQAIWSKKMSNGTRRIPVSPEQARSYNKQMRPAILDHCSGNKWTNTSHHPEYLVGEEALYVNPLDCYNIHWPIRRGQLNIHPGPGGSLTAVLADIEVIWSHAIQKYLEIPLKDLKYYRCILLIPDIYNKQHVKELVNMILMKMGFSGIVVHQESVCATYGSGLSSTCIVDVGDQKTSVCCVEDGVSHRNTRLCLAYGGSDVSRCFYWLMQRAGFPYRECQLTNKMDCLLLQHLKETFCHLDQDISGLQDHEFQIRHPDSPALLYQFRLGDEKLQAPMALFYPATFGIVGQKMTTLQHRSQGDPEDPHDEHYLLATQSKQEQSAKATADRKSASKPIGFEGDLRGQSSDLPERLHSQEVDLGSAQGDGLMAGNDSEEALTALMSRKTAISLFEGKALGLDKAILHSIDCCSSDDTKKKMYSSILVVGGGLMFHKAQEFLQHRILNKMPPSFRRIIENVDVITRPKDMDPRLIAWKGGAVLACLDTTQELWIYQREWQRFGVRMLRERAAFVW

human Arp8 = target: T3, human Arp8 (Homo sapiens, UniProt Q9H981); assay: […] phosphate release, TLC; type: biochemical; settings: 100 µM ATP with 5 nM [γ-32P]ATP (labelled compound), 2 mM MgCl2, pH 7.9, 30 °C; construct (full-length or Δ1-33) not stated
T3 construct: gene ACTR8; monomer
T3 sequence (Q9H981 whole entry): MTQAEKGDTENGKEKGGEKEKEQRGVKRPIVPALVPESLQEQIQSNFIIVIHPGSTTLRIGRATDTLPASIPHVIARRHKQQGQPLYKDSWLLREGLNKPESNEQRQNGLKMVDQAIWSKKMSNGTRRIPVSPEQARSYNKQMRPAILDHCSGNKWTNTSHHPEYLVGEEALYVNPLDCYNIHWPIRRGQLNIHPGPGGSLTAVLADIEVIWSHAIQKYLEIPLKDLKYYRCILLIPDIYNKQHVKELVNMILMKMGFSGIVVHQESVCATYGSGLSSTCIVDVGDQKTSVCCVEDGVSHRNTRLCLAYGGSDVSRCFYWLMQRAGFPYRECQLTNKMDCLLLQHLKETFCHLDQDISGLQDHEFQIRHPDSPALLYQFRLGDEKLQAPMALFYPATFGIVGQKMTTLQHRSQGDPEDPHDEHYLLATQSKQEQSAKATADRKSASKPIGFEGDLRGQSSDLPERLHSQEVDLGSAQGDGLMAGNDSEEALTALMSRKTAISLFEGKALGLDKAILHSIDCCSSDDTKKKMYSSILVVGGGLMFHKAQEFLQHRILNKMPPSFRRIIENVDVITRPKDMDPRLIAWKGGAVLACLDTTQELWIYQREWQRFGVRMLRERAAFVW

[2] = target: T4, Saccharomyces cerevisiae INO80 sub-complex I (Arp8–Arp4–actin-HSA) (Saccharomyces cerevisiae, UniProt P60010+Q12386); assay: […] phosphate release, TLC; type: biochemical; settings: 100 µM ATP with 5 nM [γ-32P]ATP (labelled compound), 2 mM MgCl2, pH 7.9, 30 °C; active subunit not resolved (Arp8 and/or actin)
T4 construct: co-expressed Arp4, Arp8, actin and His6-Ino80(462-685) in HighFive insect cells; monomeric complex; with Actin-related protein 4; Chromatin-remodeling ATPase INO80

Nc1ncnc2c1ncn2[C@@H]1O[C@H](COP(=O)(O)OP(=O)(O)OP(=O)(O)O)[C@@H](O)[C@H]1O [ATP]
low basal ATPase activity (yeast Arp8): yeast and human Arp8 possess a low basal ATPase activity
X-ray crystal structure, 2.6 Å [1]: Electron density in the nucleotide-binding cleft of actin could clearly be assigned to ATP
low basal ATPase activity (human Arp8): yeast and human Arp8 possess a low basal ATPase activity
low basal ATPase activity [2]: sub-complex I (Arp8–Arp4–actin-HSA) also shows a low basal ATPase activity
